The results in this text go back to ChEMBL document CHEMBL1201862, “PubChem BioAssay data set” (2004).

Each structure is given as a SMILES string.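 Grown in 96-well plates, cells were treated for 48 hours with each compound at five concentrations. Insufficient inhibition: endpoint recorded as highest concentration tested. GI50 = concentration required for 50% inhibition of growth.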 Activity calls are given as the source filed them. Cut-off read from the data, not from the text of the source: active = GI50 up to about 1.1 µM and inactive = higher.

What all share (assay): DTP human tumour cell line panel, 48 h
Experiment [1] relates to 786-0.
The test system of experiment [2] is ACHN.
The test system of experiment [3] is DU-145.
Experiment [4] relates to KM12.
Experiment [5] has as its system MDA-MB-231.
For experiment [6], the system named is MDA-MB-435.
The test system of experiment [7] is NCI-H460.
Experiment [8] relates to OVCAR-4.
For experiment [9], the system named is OVCAR-8.
Experiment [10] has as its system PC-3.
For experiment [11], the system named is RXF 393.
In experiment [12] the test system is SF-295.
For experiment [13], the system named is SF-539.
Experiment [14] relates to SK-OV-3.
Experiment [15] relates to SNB-19.
Experiment [16] has as its system SNB-75.
Experiment [17] concerns SW-620.
Experiment [18] relates to TK-10.
The subject of experiment [19] is U-251.
Experiment [20] concerns CCRF-CEM.

Consider `O=C(/C=C1\C[C@H]2C=Nc3ccccc3C(=O)N2C1)NCCCNC(=O)/C=C1\C[C@H]2C=Nc3ccccc3C(=O)N2C1`, for which the GI50 in [1] was 3.03 µM (inactive); in [2], 14.9 µM (inactive); in experiment [3] it was 18.5 µM (inactive); in experiment [4], 16 µM (inactive); in experiment [5], 16.1 µM (inactive); in experiment [6], 19.1 µM (inactive). Further, the GI50 was 18.6 µM (inactive) in [7]; 18.2 µM (inactive) in experiment [8]; 18.6 µM (inactive) in experiment [9]; 17.6 µM (inactive) in experiment [10]; 13.6 µM (inactive) in experiment [11]; 19 µM (inactive) in [12]. Moreover, the GI50 in experiment [13] was 18.3 µM (inactive); in [14], 18.5 µM (inactive); in experiment [15], 16.4 µM (inactive); in experiment [16], 16.2 µM (inactive); in experiment [17], 5.51 µM (inactive); in [18], 19.8 µM (inactive). Also, in experiment [19], the GI50 was 13.6 µM (inactive).
Consider `COc1cccc(Nc2nc3c([nH]2)c(=O)n(C)c(=O)n3C)c1`, for which the GI50 in experiment [1], in experiment [20], in experiment [3], in [4], in experiment [5] and in experiment [6] was > 10 µM (inactive) in each case. Moreover, the GI50 was > 10 µM (inactive) in experiment [8]; > 10 µM (inactive) in experiment [9]; > 10 µM (inactive) in experiment [10]; 7.01 µM (inactive) in [11]; > 10 µM (inactive) in experiment [12]; > 10 µM (inactive) in experiment [14]. The GI50 in experiment [16], in experiment [17] and in [18] was > 10 µM (inactive) throughout.
Take `CN(C)C/C=C(/c1ccc(Br)cc1)c1cccnc1`: the GI50 is 94 µM (inactive) in experiment [1]; > 100 µM (inactive) in experiment [2]; > 100 µM (inactive) in [3]; 74.1 µM (inactive) in experiment [4]; 32.7 µM (inactive) in [5]; 32.9 µM (inactive) in experiment [6]. Besides, the GI50 in experiment [7] was 81.3 µM (inactive); in experiment [8], > 100 µM (inactive); in experiment [9] it was > 100 µM (inactive); in experiment [10], > 100 µM (inactive); in [11] it was 30.6 µM (inactive); in experiment [12], 22.2 µM (inactive). Moreover, the GI50 in experiment [13] was > 100 µM (inactive); in experiment [14], 71.1 µM (inactive); in experiment [15], > 100 µM (inactive); in experiment [16], 51.5 µM (inactive); in experiment [17], > 100 µM (inactive); in [18], 65.9 µM (inactive). In addition, the GI50 in experiment [19] was 98.4 µM (inactive).
As to `O=C(/C=C\c1ccsc1)c1ccccc1`, the GI50 in [1] was 7.21 µM (inactive); in experiment [2] it was 8.05 µM (inactive); in experiment [3], 12.8 µM (inactive); in [4] it was 2.97 µM (inactive); in experiment [5], 4.17 µM (inactive); in [6] it was 10.6 µM (inactive). The GI50 in [7] was 11.4 µM (inactive); in [8], 3.94 µM (inactive); in experiment [9], 8.99 µM (inactive); in experiment [10], 11.1 µM (inactive); in experiment [11], 5.75 µM (inactive); in [12], 15.8 µM (inactive). The GI50 in [13] is 7.06 µM (inactive); in experiment [14], 17.1 µM (inactive); in experiment [15] it was 13.2 µM (inactive); in [16] it was 10.1 µM (inactive); in [17] it was 2.91 µM (inactive); in experiment [18], 15 µM (inactive). For the same compound, the GI50 in experiment [19] is 3.78 µM (inactive).
Regarding `Cc1ccc(N(C=O)c2c([N+](=O)[O-])cc([N+](=O)[O-])c3c2=[N+]([O-])CN=3)cc1`, the GI50 in experiment [1] was 27 µM (inactive); in [2] it was 24.8 µM (inactive); in experiment [3], 27.2 µM (inactive); in experiment [4] it was 43.8 µM (inactive); in experiment [5], 18.5 µM (inactive); in [6] it was 30.8 µM (inactive). The GI50 in experiment [7] was > 100 µM (inactive); in [8], 30.9 µM (inactive); in experiment [9], 28.5 µM (inactive); in experiment [10], 20.4 µM (inactive); in [11], 20.7 µM (inactive); in [12] it was 65.5 µM (inactive). The GI50 in experiment [13] was 32 µM (inactive); in [14], > 100 µM (inactive); in experiment [15] it was 66.8 µM (inactive); in experiment [16] it was 33.7 µM (inactive); in experiment [17] it was 45.4 µM (inactive); in experiment [18] it was 35.9 µM (inactive). The GI50 in experiment [19] is 28.4 µM (inactive).
Consider `CC1C(NNc2ccccc2)Oc2cc3c(cc2C1c1ccccc1O)OCO3` (stereo unspecified), for which the GI50 in [1] was 5.53 µM (inactive); in experiment [2] it was 0.962 µM (active); in [20] it was 1.4 µM (inactive); in experiment [3], 3.89 µM (inactive); in [4] it was 0.741 µM (active); in experiment [5], 13.4 µM (inactive). The GI50 was 0.946 µM (active) in experiment [6]; 2.81 µM (inactive) in [7]; 10 µM (inactive) in experiment [9]; 3.2 µM (inactive) in experiment [10]; 15.7 µM (inactive) in experiment [11]; 0.632 µM (active) in [12]. Further, the GI50 in experiment [13] was 2.01 µM (inactive); in experiment [14], 10.5 µM (inactive); in [15], 14.3 µM (inactive); in experiment [16], 10.1 µM (inactive); in [17] it was 13.7 µM (inactive); in experiment [18] it was 4.81 µM (inactive). Moreover, the GI50 in [19] is 10.1 µM (inactive).
As to `COc1c(-c2cc(C)c(Cl)c(=O)[nH]2)c(O)c(OC)c2occc12`, the GI50 in experiment [1] was > 100 µM (inactive); in experiment [2], > 100 µM (inactive); in experiment [3] it was > 100 µM (inactive); in [4], > 100 µM (inactive); in experiment [5], 75.9 µM (inactive); in [6], > 100 µM (inactive). Also, the GI50 is > 100 µM (inactive) in [7]; > 100 µM (inactive) in experiment [8]; > 100 µM (inactive) in experiment [9]; > 100 µM (inactive) in [10]; 52.2 µM (inactive) in experiment [11]; > 100 µM (inactive) in experiment [12]. Further, the GI50 in [13] is > 100 µM (inactive); in [14], > 100 µM (inactive); in [15], 96.4 µM (inactive); in experiment [16] it was 26.7 µM (inactive); in experiment [17], > 100 µM (inactive); in [18], 42.9 µM (inactive). Also, the GI50 in experiment [19] is > 100 µM (inactive).
For `COc1ccc(C2=Nc3c(nc(OC)[nH]c3=O)NC(c3ccccc3)C2)cc1` (stereo unspecified), the GI50 is 27.6 µM (inactive) in [1]; 27.5 µM (inactive) in [2]; 30.8 µM (inactive) in [20]; 42.3 µM (inactive) in [3]; 18.2 µM (inactive) in [4]; 20.7 µM (inactive) in experiment [5]. For the same compound, the GI50 in experiment [6] is 33.3 µM (inactive); in experiment [9], 21.4 µM (inactive); in [10], 48 µM (inactive); in experiment [11], 29.7 µM (inactive); in [12], 50 µM (inactive); in experiment [13] it was 28.1 µM (inactive). Besides, the GI50 in [15] is 30.5 µM (inactive); in [16], 12.5 µM (inactive); in experiment [17], 24.1 µM (inactive); in experiment [19] it was 24.8 µM (inactive).
Consider `NC(CCC(=O)c1ccccn1)C(=O)O` (stereo unspecified), for which the GI50 in [1], in experiment [2], in [20], in experiment [3], in experiment [4] and in experiment [5] was > 100 µM (inactive) throughout. The GI50 in experiment [6], in experiment [7], in experiment [8], in experiment [9], in [10] and in experiment [11] was > 100 µM (inactive) throughout. The GI50 in experiment [12], in [13], in [14], in experiment [15], in experiment [17] and in experiment [18] was > 100 µM (inactive) throughout. The GI50 in [19] was > 100 µM (inactive).
Consider `O=c1[nH]c(=O)n(C2CC(O)C(CO)O2)cc1OC/C=C/Cc1ccccc1` (stereo unspecified), for which the GI50 in experiment [1], in experiment [2], in [20], in [3], in experiment [4] and in [5] was > 100 µM (inactive) each time. Moreover, the GI50 in experiment [6], in [7], in experiment [8], in [9], in experiment [10] and in experiment [11] was > 100 µM (inactive) each time. Moreover, the GI50 in [12], in experiment [14], in experiment [15], in [16], in [18] and in experiment [19] was > 100 µM (inactive) each time.
Consider `Cn1c2ccccc2n2c3ncccc3c(=O)c(C#N)c12`, for which the GI50 was 8.83 µM (inactive) in experiment [1]; 3.09 µM (inactive) in experiment [2]; 4.07 µM (inactive) in experiment [20]; 6.5 µM (inactive) in [3]; 14.6 µM (inactive) in [4]; 17.9 µM (inactive) in [5]. Further, the GI50 was 26.7 µM (inactive) in experiment [6]; 2.46 µM (inactive) in [7]; 30.7 µM (inactive) in experiment [8]; 5.27 µM (inactive) in [9]; 19.5 µM (inactive) in experiment [10]; 16.9 µM (inactive) in experiment [11]. Moreover, the GI50 in [12] is 7.69 µM (inactive); in [14], 17.3 µM (inactive); in [15], 8.28 µM (inactive); in experiment [16], 12.2 µM (inactive); in experiment [17], 7.85 µM (inactive); in experiment [18], 50.6 µM (inactive). In [19], the GI50 is 6.38 µM (inactive).
